This is an account of results in ChEMBL document CHEMBL3045546, “Synthesis and antimicrobial screening of 4-thiazolidinone and 2-azetidinone derivatives of piperazine” (2013).

Usually MIC stands for the least concentration at which growth counts as inhibited.

Holding throughout (type): functional
Assay [1] concerns Microsporum canis. Briefly: Antimicrobial activity against Arthroderma otae ATCC 11622 assessed as growth inhibition by broth dilution method. (In broth dilution the organism is exposed to a series of concentrations in liquid medium.)
The test system of assay [2] is Escherichia coli. In words: Antimicrobial activity against Escherichia coli ATCC 25922 assessed as growth inhibition by broth dilution method.
The subject of assay [3] is Aspergillus awamori. Briefly: Antimicrobial activity against Aspergillus awamori ATCC 22342 assessed as growth inhibition by broth dilution method.
The test system of assay [4] is Staphylococcus aureus. Briefly: Antimicrobial activity against Staphylococcus aureus ATCC 25923 assessed as growth inhibition by broth dilution method.
In assay [5] the test system is Trichophyton longifusum. In words: Antimicrobial activity against Trichophyton longifusum ATCC 22397 assessed as growth inhibition by broth dilution method.
For assay [6], the system named is Salmonella typhi. In words: Antimicrobial activity against Salmonella enterica subsp. enterica serovar Typhi ATCC 19430 assessed as growth inhibition by broth dilution method.
Assay [7] has as its system Proteus vulgaris. In words: Antimicrobial activity against Proteus vulgaris ATCC 13315 assessed as growth inhibition by broth dilution method.
In assay [8] the test system is Fusarium solani. In words: Antimicrobial activity against Fusarium solani ATCC 38136 assessed as growth inhibition by broth dilution method.
Assay [9] has as its system Bacillus subtilis. Briefly: Antimicrobial activity against Bacillus subtilis ATCC 6633 assessed as growth inhibition by broth dilution method.
For assay [10], the system named is Candida albicans. Briefly: Antimicrobial activity against Candida albicans ATCC 10231 assessed as growth inhibition by broth dilution method.
In assay [11] the test system is Alternaria alternata. Briefly: Antimicrobial activity against Alternaria alternata ATCC 66868 assessed as growth inhibition by broth dilution method.
Assay [12] relates to Bacillus cereus. Briefly: Antimicrobial activity against Bacillus cereus ATCC 11778 assessed as growth inhibition by broth dilution method.
Assay [13] has as its system Aspergillus fumigatus. Briefly: Antimicrobial activity against Aspergillus fumigatus assessed as growth inhibition by broth dilution method.
For assay [14], the system named is Pseudomonas aeruginosa. Briefly: Antimicrobial activity against Pseudomonas aeruginosa ATCC 10145 assessed as growth inhibition by broth dilution method.
The test system of assay [15] is Micrococcus luteus. Briefly: Antimicrobial activity against Micrococcus luteus ATCC 4698 assessed as growth inhibition by broth dilution method.
Assay [16] has as its system Proteus mirabilis. In words: Antimicrobial activity against Proteus mirabilis ATCC 49565 assessed as growth inhibition by broth dilution method.
Assay [17] relates to Staphylococcus epidermidis. Briefly: Antimicrobial activity against Staphylococcus epidermidis ATCC 12228 assessed as growth inhibition by broth dilution method.
The test system of assay [18] is Staphylococcus hominis. Briefly: Antimicrobial activity against Staphylococcus hominis ATCC 27844 assessed as growth inhibition by broth dilution method.
In assay [19] the test system is Rhizoctonia solani. In words: Antimicrobial activity against Rhizoctonia solani ATCC 76131 assessed as growth inhibition by broth dilution method.
The subject of assay [20] is Bacillus pumilus. Briefly: Antimicrobial activity against Bacillus pumilus ATCC 14884 assessed as growth inhibition by broth dilution method.
The subject of assay [21] is Aspergillus niger. Briefly: Antimicrobial activity against Aspergillus niger ATCC 9142 assessed as growth inhibition by broth dilution method.
For assay [22], the system named is Klebsiella pneumoniae. In words: Antimicrobial activity against Klebsiella pneumoniae ATCC 13883 assessed as growth inhibition by broth dilution method.
In assay [23] the test system is Trichoderma viride. Briefly: Antimicrobial activity against Hypocrea rufa ATCC 52440 assessed as growth inhibition by broth dilution method.
Assay [24] concerns Aspergillus flavus. Briefly: Antimicrobial activity against Aspergillus flavus ATCC 15517 assessed as growth inhibition by broth dilution method.

Converted amounts (≈) assume the structure as drawn.

In the case of `COc1ccc(C2SCC(=O)N2CCN2CCNCC2)cc1O` (stereo not drawn), the MIC in assay [1] came to 9.37 µg/mL (≈ 27.8 µM); in assay [2], 9.37 µg/mL (≈ 27.8 µM); in assay [3], 9.37 µg/mL (≈ 27.8 µM); in [4], 9.37 µg/mL (≈ 27.8 µM); in assay [5], 18.8 µg/mL (≈ 55.6 µM); in [6] it was 9.37 µg/mL (≈ 27.8 µM). The MIC worked out at 9.37 µg/mL (≈ 27.8 µM) in assay [7]; 18.8 µg/mL (≈ 55.6 µM) in assay [8]; 9.37 µg/mL (≈ 27.8 µM) in [9]; 9.37 µg/mL (≈ 27.8 µM) in [10]; 18.8 µg/mL (≈ 55.6 µM) in [11]; 4.68 µg/mL (≈ 13.9 µM) in [12]. Besides, the MIC in assay [13], in assay [14], in assay [15], in assay [16], in [17] and in assay [18] was 9.37 µg/mL (≈ 27.8 µM) in each case. Moreover, the MIC in assay [19] was determined as 9.37 µg/mL (≈ 27.8 µM); in assay [20], 9.37 µg/mL (≈ 27.8 µM); in assay [21], 18.8 µg/mL (≈ 55.6 µM); in [22], 4.68 µg/mL (≈ 13.9 µM); in assay [23], 18.8 µg/mL (≈ 55.6 µM); in assay [24] it was 9.37 µg/mL (≈ 27.8 µM).

Take `O=C1CSC(c2ccccc2O)N1CCN1CCNCC1` (stereo not drawn): the MIC in assay [1] came out at 300 µg/mL (≈ 976 µM); in assay [2] it was 75 µg/mL (≈ 244 µM); in assay [3] it was 300 µg/mL (≈ 976 µM); in assay [4], 150 µg/mL (≈ 488 µM); in assay [5], 300 µg/mL (≈ 976 µM); in assay [6] it was 75 µg/mL (≈ 244 µM). In addition, the MIC in assay [7] worked out at 150 µg/mL (≈ 488 µM); in assay [8], 300 µg/mL (≈ 976 µM); in [9] it was 75 µg/mL (≈ 244 µM); in assay [10], 150 µg/mL (≈ 488 µM); in assay [11] it was 150 µg/mL (≈ 488 µM); in assay [12] it was 75 µg/mL (≈ 244 µM). Besides, the minimum inhibitory concentration (MIC) in assay [13] was determined as 150 µg/mL (≈ 488 µM); in assay [14] it was 75 µg/mL (≈ 244 µM); in assay [15] it was 150 µg/mL (≈ 488 µM); in assay [16], 150 µg/mL (≈ 488 µM); in [17] it was 75 µg/mL (≈ 244 µM); in assay [18] it was 75 µg/mL (≈ 244 µM). Also, the MIC in [19] stood at 150 µg/mL (≈ 488 µM); in assay [20], 150 µg/mL (≈ 488 µM); in assay [21] it was 300 µg/mL (≈ 976 µM); in assay [22], 75 µg/mL (≈ 244 µM); in [23], 300 µg/mL (≈ 976 µM); in assay [24], 150 µg/mL (≈ 488 µM).
